According to ChEMBL document CHEMBL3232704, “Discovery of mixed type thymidine phosphorylase inhibitors endowed with antiangiogenic properties: synthesis, pharmacological evaluation and molecular docking study of 2-thioxo-pyrazolo[1,5-a][1,3,5]triazin-4-ones. Part II” (Eur J Med Chem, 2014):

assay: Cytotoxicity against human MDA-MB-231 cells assessed as cell viability at 25 to 100 uM after 72 hrs by MTT assay relative to control; format: cell-based; settings: read-out: Activity

SMILES | viability at 72 h, up to 100 µM [%]
O=c1[nH]c(=S)[nH]c2cc(-c3ccc(Cl)c(Cl)c3)nn12 | 80
NC(=S)Nc1nn2c(=O)[nH]c(=S)[nH]c2c1Cc1ccc(C(F)(F)F)cc1 | 80
NC(=S)Nc1nn2c(=O)[nH]c(=S)[nH]c2c1Cc1ccc(-c2ccccc2)cc1 | 80
NC(=S)Nc1nn2c(=O)[nH]c(=S)[nH]c2c1Cc1ccc(Oc2ccccc2)cc1 | 80
NC(=S)Nc1nn2c(=O)[nH]c(=S)[nH]c2c1Cc1cccc2ccccc12 | 80
O=c1[nH]c(=O)c2cc[nH]c2[nH]1 [7-DEAZAXANTHINE] | 80
